Test results published in US20230174608A1, “Polypeptide Derivative Having Dual Receptor Agonistic Action and Use Thereof” (TIANJIN INSTITUTE OF PHARMACEUTICAL RESEARCH CO., LTD., priority 2020, published 2023).
*1 amine or outer side, *2 acyl side, *3 side chain or, on linkers, in order; H or OH if unused. Where a SMILES comes first, the peptide text is derived from it. Side-chain parts run from the residue outwards. [ ]: non-standard residue; d: D form. The star is where a group is joined. C18 diacid = O=C(O)CCCCCCCCCCCCCCCCC(=O)*; γGlu = O=C(O)[C@H](CCC(=O)[*:2])N[*:1]; AEEA = NCCOCCOCC(=O)O; Aib = CC(C)(N)C(=O)O

Assays:
GCGR = target: T1, GCGR (Homo sapiens, UniProt P47871); test: GC receptor-mediated cAMP production in vitro; format: cell-based; conditions: HEK293 cell line stably expressing GCGR
T1 construct: expressed in transfected cells
T1 sequence (P47871 26-477, species assumed): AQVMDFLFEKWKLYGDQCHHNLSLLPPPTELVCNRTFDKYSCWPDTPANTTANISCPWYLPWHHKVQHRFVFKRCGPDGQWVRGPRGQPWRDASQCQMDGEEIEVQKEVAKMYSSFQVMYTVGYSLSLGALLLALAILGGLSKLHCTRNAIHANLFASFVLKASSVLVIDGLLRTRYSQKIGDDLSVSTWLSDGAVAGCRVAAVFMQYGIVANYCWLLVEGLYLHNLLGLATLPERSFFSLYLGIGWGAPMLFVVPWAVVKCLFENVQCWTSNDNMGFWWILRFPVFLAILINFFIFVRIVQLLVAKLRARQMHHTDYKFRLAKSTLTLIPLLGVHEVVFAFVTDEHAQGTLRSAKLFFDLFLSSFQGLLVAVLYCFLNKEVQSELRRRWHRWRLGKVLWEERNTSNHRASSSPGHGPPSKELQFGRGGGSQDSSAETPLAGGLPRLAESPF
Procedure: (§1) HEK293 cell line stably expressing GLP-1R or GCGR was used for screening GLP-1R and GCGR agonist.
(§2) Preparation of test sample: each compound was prepared into 100 μM stock solution, and then gradually diluted to working concentrations of 1 μM, 100 nM, 10 nM, 1 nM, 10^−1 nM, 10^−2 nM, 10^−3 nM, and H2O.
(§3) 1) Each compound to be tested was mixed with a serum-free medium (containing 0.1% BSA and 0.5 mM IBMX) to obtain a solution at a concentration 2 times the working concentration.
(§4) 2) The cells were digested, suspended in a serum-free medium (containing 0.5 mM IBMX), counted, and placed in a 384-well plate at a density of 1,000 cells/5 μL/well, then 5 μL of the testing compound was added, and the plate was placed in dark for reaction for 30 min.
(§5) 3) After the reaction was completed, a substrate for detecting cAMP was added, and the plate was placed in dark for reaction at the room temperature for 60 min.
(§6) 4) After the reaction was completed, the plate was placed on the Envision2104 multifunctional microplate reader for detection, and the ratio of optical density (OD) values at 665 nm and 615 nm were read out.

GLP-1R = target: T2, GLP-1R (Homo sapiens, UniProt P43220); test: GLP-1 receptor-mediated cAMP production in vitro; format: cell-based; conditions: HEK293 cell line stably expressing GLP-1R
T2 construct: expressed in transfected cells
T2 sequence (P43220 24-463, species assumed): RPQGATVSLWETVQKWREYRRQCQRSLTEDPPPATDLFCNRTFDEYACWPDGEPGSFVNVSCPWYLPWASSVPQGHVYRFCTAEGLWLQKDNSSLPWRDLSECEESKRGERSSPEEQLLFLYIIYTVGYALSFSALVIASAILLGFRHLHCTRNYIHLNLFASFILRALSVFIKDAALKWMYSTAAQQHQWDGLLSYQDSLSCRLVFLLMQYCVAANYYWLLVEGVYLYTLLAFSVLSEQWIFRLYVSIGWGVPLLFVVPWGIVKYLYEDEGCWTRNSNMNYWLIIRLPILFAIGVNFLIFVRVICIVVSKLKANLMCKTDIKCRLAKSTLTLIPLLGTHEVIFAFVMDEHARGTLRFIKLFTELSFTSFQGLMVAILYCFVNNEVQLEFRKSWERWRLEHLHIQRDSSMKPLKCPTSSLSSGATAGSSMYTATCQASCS
Procedure: as §1, §2, §3, §4, §5, §6

EC50 (GCGR) [nM]	EC50 (GLP-1R) [nM]	SMILES
6.41	0.472	CC[C@H](C)[C@H](NC(=O)[C@H](Cc1ccccc1)NC(=O)[C@H](CCC(=O)O)NC(=O)[C@H](CCCCNC(=O)COCCOCCNC(=O)COCCOCCNC(=O)CC[C@H](NC(=O)CCCCCCCCCCCCCCCCC(=O)O)C(=O)O)NC(=O)[C@H](C)NC(=O)[C@H](C)NC(=O)[C@H](CCCNC(=N)N)NC(=O)[C@H](CCC(=O)O)NC(=O)[C@H](CCC(=O)O)NC(=O)[C@H](CC(C)C)NC(=O)[C@H](Cc1ccc(O)cc1)NC(=O)[C@H](CCCCN)NC(=O)[C@H](CO)NC(=O)[C@H](Cc1ccc(O)cc1)NC(=O)[C@H](CC(=O)O)NC(=O)[C@H](CO)NC(=O)[C@@H](NC(=O)[C@H](Cc1ccccc1)NC(=O)[C@@H](NC(=O)CNC(=O)[C@H](CCC(N)=O)NC(=O)C(C)(C)NC(=O)[C@@H](N)Cc1c[nH]cn1)[C@@H](C)O)[C@@H](C)O)C(=O)N[C@@H](C)C(=O)N[C@@H](Cc1c[nH]c2ccccc12)C(=O)N[C@@H](CC(C)C)C(=O)N[C@@H](CCC(=O)O)C(=O)N[C@@H](C)C(=O)NCC(=O)NCC(N)=O [dgc006] (H-H[Aib]QGTFTSDYSKYLEERAAK([AEEA-AEEA-γGlu-C18 diacid])EFIAWLEAGG-NH2; N-terminus assumed)
0.806	1.13	CCCCCCCCCCCCCCCC(=O)N[C@@H](CCC(=O)NCCCC[C@H](NC(=O)[C@H](C)NC(=O)[C@H](C)NC(=O)[C@H](CCCNC(=N)N)NC(=O)[C@H](CCC(=O)O)NC(=O)[C@H](CC(=O)O)NC(=O)[C@H](CC(C)C)NC(=O)[C@H](Cc1ccc(O)cc1)NC(=O)[C@H](CCCCN)NC(=O)[C@H](CO)NC(=O)[C@H](Cc1ccc(O)cc1)NC(=O)[C@H](CC(=O)O)NC(=O)[C@H](CO)NC(=O)[C@@H](NC(=O)[C@H](Cc1ccccc1)NC(=O)[C@@H](NC(=O)CNC(=O)[C@H](CCC(N)=O)NC(=O)[C@H](CO)NC(=O)[C@@H](N)Cc1c[nH]cn1)[C@@H](C)O)[C@@H](C)O)C(=O)N[C@@H](CCC(=O)O)C(=O)N[C@@H](Cc1ccccc1)C(=O)N[C@H](C(=O)N[C@@H](C)C(=O)N[C@@H](Cc1c[nH]c2ccccc12)C(=O)N[C@@H](CC(C)C)C(=O)N[C@@H](CCC(=O)O)C(=O)N[C@@H](C)C(=O)NCC(=O)NCC(N)=O)[C@@H](C)CC)C(=O)O [dgc001] (HELM PEPTIDE1{H.S.Q.G.T.F.T.S.D.Y.S.K.Y.L.D.E.R.A.A.K.E.F.I.A.W.L.E.A.G.G.[am]}|PEPTIDE2{[CCCCCCCCCCCCCCCC(=O)[*:2]].[gGlu]}$PEPTIDE1,PEPTIDE2,20:R3-2:R2$$$V2.0; N-terminus assumed)
1.83	0.792	CCCCCCCCCCCCCCCC(=O)N[C@@H](CCC(=O)NCCCC[C@H](NC(=O)[C@H](C)NC(=O)[C@H](C)NC(=O)[C@H](CCCNC(=N)N)NC(=O)[C@H](CCC(=O)O)NC(=O)[C@H](CCC(=O)O)NC(=O)[C@H](CC(C)C)NC(=O)[C@H](Cc1ccc(O)cc1)NC(=O)[C@H](CCCCN)NC(=O)[C@H](CO)NC(=O)[C@H](Cc1ccc(O)cc1)NC(=O)[C@H](CC(=O)O)NC(=O)[C@H](CO)NC(=O)[C@@H](NC(=O)[C@H](Cc1ccccc1)NC(=O)[C@@H](NC(=O)CNC(=O)[C@H](CCC(N)=O)NC(=O)C(C)(C)NC(=O)[C@@H](N)Cc1c[nH]cn1)[C@@H](C)O)[C@@H](C)O)C(=O)N[C@@H](CCC(=O)O)C(=O)N[C@@H](Cc1ccccc1)C(=O)N[C@H](C(=O)N[C@@H](C)C(=O)N[C@@H](Cc1c[nH]c2ccccc12)C(=O)N[C@@H](CC(C)C)C(=O)N[C@@H](CCC(=O)O)C(=O)NCC(=O)N[C@@H](CCC(=O)O)C(=O)NCC(N)=O)[C@@H](C)CC)C(=O)O [dgc019] (HELM PEPTIDE1{H.[Aib].Q.G.T.F.T.S.D.Y.S.K.Y.L.E.E.R.A.A.K.E.F.I.A.W.L.E.G.E.G.[am]}|PEPTIDE2{[CCCCCCCCCCCCCCCC(=O)[*:2]].[gGlu]}$PEPTIDE1,PEPTIDE2,20:R3-2:R2$$$V2.0; N-terminus assumed)
